The term EC50 denotes the midpoint of the concentration-response curve. As a reminder, the GI50 is the concentration at which growth is held to half of that of the control. A lower GI50 goes with more potent growth inhibition. By inhibition is commonly meant the relative decrease from the control value, in per cent.

One assay deals with T1, phospho-FGFR2 (Homo sapiens, UniProt P21802).
T1 construct: endogenous in cells; host or cells: Kato III cells
In words: phospho-FGFR ELISA on Kato III cells. To be noted: read-out: EC50 (nM) P-FGFR2, Kato III cells. Format: cell-based. The protocol: For the phospho-FGFR, the following assay Protocol was used. 25,000 cells are seeded in 90 μl/well in 96-well microplates, which are then placed in a humidified CO2 incubator at 37° C. overnight. 96-well ELISA plates (Mesoscale Discovery) are coated with capture antibody (R&D Systems Duo-Set) at 4 μg/ml, 30 μl/well. The next day, 10 μl/well of 10× concentrated drug is added and the plates are returned to the incubator for […]. ELISA plates are washed using an automated plate washer (BioTek Instruments). After 30 min, cells are inverted and gently tapped to remove excess medium, and immediately placed on ice. 30 μl mPer cell lysis reagent (Thermo Scientific) with protease and phosphatase inhibitors is added/well. After 15 min on ice, lysates are mixed and 30 μl transferred to the ELISA plate. Plates are incubated for 2 hr, washed, and 30 μl/well detection antibody is added. After 1 hr, plates are washed and 30 μl “SulfoTag” (MesoScale Discovery) detection reagent is added. After 1 hr, plates are washed and 150 μl/well read solution is added. Electrochemiluminescence is determined on the Mesoscale Discovery Sector Imager 2000. Data are analyzed using Excel (Microsoft), and EC50 values are determined using Prism (Graphpad).
On the technique in general: ELISA stands for enzyme-linked immunosorbent assay.

The next assay concerns RT112. Nature of the assay: CellTiterblue viability, 72 hr, RT112. Format: cell-based. To be noted: Homo sapiens, RT-112, RT112 cells. In short, it runs like this:
(§1)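 Seeding 1000 cells/well, overnight 37° C; drug added as 10× concentrate, 72 hr exposure; CellTiterblue 3 hr, fluorescence read; GI50.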
A general note: The colour change of resazurin is a common sign of viable cells or microbes.

The target in another assay is T2, FGFR1 kinase (Homo sapiens, UniProt P11362).
T2 construct: purchased Millipore (KinaseProfiler Service)
Nature of the assay: KinaseProfiler kinase inhibition assay, FGFR1. The format is biochemical. To be noted: 1 μM compound.

The next assay addresses T3, Abl kinase (Homo sapiens, UniProt P00519).
T3 construct: purchased Millipore (KinaseProfiler Service)
In words: KinaseProfiler kinase inhibition assay, Abl. The settings on record: 1 μM compound. Format: biochemical.

Another assay deals with T4, Ret kinase (Homo sapiens, UniProt P07949).
T4 construct: purchased Millipore (KinaseProfiler Service)
In words: KinaseProfiler kinase inhibition assay, Ret. The format is biochemical. To be noted: 1 μM compound.

Another assay concerns the target T5, KDR kinase (Homo sapiens, UniProt P35968).
T5 construct: purchased Millipore (KinaseProfiler Service)
Nature of the assay: KinaseProfiler kinase inhibition assay, KDR. The format is biochemical. To be noted: 1 μM compound.

Another assay has as its target T6, Tie2 (Homo sapiens, UniProt Q02763).
T6 construct: purchased Millipore (KinaseProfiler Service)
In words: KinaseProfiler kinase inhibition assay, Tie2. The settings on record: 1 μM compound. The format is biochemical.

The test system of the next assay is AN3_CA. In words: CellTiterblue viability, 72 hr, AN3_CA. The format is cell-based. The settings on record: Homo sapiens, AN3-CA, AN3_CA cells. The procedure, abridged:
as §1

For another assay, the system named is Kato III. Nature of the assay: CellTiterblue viability, 72 hr, Kato III. Format: cell-based. The settings on record: Homo sapiens, Kato III cells. The procedure, abridged:
as §1

The target of another assay is T7, c-Src kinase (Homo sapiens, UniProt P12931).
T7 construct: purchased Millipore (KinaseProfiler Service)
Nature of the assay: KinaseProfiler kinase inhibition assay, c-Src. The settings on record: 1 μM compound; read-out: % Inhibition @1 μM cSrc. Format: biochemical.

Another assay addresses T8, Alk kinase (Homo sapiens, UniProt Q9UM73).
T8 construct: purchased Millipore (KinaseProfiler Service)
Nature of the assay: KinaseProfiler kinase inhibition assay, Alk. Format: biochemical. The settings on record: 1 μM compound.

The subject of another assay is KG1a. Nature of the assay: CellTiterblue viability, 72 hr, KG1a. Format: cell-based. The settings on record: Homo sapiens, KG-1a, KG1a cells. In short, it runs like this: as §1
The test system of the next assay is MDA-MB134. In words: CellTiterblue viability, 72 hr, MDA-MB134. The format is cell-based. To be noted: MDA-MB134 cells. The protocol:
A number of studies were performed to analyze the consequences of tyrosine kinase inhibition in cell lines. To do this, 1000 cells are seeded in 27 μl/well in 384-well microplates, which are then placed in a humidified CO2 incubator at 37° C. overnight. The next day, 3 μl/well of 10× concentrated drug is added and the plates are returned to the incubator for 72 hr. After 72 hr incubation, plates are removed and […] CellTiterblue (Promega) viability reagent is added. Plates are returned to the incubator for 3 hr, after which it is fluorescence measurements are read on the Victor X3 plate reader (Perkin Elmer). Data are analyzed using Excel (Microsoft), and GI50 values are determined using Prism (Graphpad).

T5 sequence (P35968 20-1356): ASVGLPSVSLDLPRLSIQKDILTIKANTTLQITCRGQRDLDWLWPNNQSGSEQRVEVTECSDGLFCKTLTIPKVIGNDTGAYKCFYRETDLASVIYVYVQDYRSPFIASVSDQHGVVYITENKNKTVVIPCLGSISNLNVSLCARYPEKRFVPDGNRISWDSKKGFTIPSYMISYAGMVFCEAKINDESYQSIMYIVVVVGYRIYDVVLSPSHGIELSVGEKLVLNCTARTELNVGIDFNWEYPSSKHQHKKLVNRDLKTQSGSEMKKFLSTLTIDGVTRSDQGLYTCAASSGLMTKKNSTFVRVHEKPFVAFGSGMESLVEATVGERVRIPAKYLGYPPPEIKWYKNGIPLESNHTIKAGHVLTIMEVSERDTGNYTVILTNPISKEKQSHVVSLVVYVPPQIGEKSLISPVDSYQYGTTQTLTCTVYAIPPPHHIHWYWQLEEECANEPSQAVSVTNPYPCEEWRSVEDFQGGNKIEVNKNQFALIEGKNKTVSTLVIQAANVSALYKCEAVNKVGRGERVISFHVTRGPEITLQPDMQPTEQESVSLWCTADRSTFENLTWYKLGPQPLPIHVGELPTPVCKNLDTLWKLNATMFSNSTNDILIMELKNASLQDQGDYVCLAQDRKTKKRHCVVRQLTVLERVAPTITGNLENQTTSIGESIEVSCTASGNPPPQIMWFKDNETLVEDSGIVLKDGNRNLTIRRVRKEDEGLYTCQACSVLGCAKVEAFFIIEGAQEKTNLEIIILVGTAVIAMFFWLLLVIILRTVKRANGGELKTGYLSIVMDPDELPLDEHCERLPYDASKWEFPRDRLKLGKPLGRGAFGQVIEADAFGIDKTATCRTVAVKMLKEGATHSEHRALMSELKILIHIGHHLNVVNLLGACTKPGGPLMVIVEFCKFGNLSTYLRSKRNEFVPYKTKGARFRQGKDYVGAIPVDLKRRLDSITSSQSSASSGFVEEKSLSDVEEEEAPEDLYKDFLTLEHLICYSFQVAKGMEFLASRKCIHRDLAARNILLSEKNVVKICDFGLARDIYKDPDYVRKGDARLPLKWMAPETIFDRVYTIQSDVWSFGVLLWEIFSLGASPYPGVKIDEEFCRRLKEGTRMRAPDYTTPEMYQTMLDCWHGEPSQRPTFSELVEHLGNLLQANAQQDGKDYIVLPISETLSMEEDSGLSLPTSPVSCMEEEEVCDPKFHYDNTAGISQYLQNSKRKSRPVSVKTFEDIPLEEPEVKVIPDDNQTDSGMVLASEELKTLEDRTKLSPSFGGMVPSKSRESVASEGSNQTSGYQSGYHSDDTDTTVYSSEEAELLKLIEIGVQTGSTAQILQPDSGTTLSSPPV
T1 sequence (P21802 22-766 isoform P21802-8 limits assumed): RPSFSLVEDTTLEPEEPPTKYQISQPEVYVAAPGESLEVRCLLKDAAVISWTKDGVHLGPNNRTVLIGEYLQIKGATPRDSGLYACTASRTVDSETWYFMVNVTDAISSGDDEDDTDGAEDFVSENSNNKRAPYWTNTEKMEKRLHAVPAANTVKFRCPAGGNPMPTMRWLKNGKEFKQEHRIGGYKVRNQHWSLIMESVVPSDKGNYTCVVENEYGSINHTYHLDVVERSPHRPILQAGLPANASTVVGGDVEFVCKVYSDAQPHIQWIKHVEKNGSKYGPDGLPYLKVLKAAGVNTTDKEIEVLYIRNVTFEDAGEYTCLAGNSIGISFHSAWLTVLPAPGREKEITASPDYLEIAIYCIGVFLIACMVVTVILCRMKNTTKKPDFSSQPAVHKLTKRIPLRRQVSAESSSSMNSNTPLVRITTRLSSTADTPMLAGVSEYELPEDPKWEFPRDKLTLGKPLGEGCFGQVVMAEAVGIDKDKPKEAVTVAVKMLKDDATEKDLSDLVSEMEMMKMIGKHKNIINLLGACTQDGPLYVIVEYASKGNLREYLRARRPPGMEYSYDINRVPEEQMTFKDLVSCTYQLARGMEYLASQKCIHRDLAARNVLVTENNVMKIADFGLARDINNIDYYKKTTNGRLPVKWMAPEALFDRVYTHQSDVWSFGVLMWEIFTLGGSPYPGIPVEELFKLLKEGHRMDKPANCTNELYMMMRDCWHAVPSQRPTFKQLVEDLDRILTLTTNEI
T7 sequence (P12931 whole entry): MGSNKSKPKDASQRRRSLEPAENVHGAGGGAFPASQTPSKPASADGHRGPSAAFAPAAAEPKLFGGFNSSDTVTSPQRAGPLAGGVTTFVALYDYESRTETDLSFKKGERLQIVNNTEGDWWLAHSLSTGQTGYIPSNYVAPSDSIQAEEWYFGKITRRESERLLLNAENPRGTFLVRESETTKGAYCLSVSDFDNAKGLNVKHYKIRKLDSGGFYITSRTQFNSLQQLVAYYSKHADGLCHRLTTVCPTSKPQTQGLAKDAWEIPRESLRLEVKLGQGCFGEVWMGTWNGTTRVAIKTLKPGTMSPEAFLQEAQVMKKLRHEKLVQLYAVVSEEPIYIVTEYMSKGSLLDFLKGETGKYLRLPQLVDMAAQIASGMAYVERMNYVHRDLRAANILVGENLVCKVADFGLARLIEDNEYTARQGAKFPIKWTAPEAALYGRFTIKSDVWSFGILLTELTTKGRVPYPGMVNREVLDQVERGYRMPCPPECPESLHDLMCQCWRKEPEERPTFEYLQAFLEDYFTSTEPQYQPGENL
T4 sequence (P07949 29-1114): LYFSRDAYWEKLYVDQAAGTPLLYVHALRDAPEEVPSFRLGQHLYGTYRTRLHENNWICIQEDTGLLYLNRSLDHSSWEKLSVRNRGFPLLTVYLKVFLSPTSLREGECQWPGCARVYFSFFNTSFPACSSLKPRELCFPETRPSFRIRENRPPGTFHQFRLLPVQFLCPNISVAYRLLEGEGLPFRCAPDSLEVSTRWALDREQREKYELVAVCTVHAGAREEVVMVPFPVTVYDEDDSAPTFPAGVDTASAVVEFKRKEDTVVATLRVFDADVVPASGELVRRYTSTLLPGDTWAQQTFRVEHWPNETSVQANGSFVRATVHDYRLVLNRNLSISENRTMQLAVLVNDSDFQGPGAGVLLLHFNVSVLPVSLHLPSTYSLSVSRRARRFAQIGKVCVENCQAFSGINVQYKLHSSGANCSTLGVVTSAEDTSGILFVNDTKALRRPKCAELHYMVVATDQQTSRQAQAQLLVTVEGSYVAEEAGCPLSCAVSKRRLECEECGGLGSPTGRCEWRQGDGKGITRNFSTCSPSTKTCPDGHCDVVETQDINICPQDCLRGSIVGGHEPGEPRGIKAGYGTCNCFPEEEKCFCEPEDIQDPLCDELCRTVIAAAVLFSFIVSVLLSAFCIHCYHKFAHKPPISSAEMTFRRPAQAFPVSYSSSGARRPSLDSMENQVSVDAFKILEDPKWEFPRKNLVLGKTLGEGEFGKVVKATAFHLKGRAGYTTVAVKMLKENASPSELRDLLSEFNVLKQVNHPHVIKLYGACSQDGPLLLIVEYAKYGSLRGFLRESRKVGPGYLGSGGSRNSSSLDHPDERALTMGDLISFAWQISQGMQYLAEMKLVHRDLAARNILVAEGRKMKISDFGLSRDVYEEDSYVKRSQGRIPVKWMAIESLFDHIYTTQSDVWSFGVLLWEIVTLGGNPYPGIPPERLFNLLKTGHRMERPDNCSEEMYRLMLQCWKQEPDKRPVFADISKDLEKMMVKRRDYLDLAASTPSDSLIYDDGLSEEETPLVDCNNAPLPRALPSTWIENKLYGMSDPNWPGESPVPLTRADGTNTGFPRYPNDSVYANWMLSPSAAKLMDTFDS
T3 sequence (P00519 whole entry): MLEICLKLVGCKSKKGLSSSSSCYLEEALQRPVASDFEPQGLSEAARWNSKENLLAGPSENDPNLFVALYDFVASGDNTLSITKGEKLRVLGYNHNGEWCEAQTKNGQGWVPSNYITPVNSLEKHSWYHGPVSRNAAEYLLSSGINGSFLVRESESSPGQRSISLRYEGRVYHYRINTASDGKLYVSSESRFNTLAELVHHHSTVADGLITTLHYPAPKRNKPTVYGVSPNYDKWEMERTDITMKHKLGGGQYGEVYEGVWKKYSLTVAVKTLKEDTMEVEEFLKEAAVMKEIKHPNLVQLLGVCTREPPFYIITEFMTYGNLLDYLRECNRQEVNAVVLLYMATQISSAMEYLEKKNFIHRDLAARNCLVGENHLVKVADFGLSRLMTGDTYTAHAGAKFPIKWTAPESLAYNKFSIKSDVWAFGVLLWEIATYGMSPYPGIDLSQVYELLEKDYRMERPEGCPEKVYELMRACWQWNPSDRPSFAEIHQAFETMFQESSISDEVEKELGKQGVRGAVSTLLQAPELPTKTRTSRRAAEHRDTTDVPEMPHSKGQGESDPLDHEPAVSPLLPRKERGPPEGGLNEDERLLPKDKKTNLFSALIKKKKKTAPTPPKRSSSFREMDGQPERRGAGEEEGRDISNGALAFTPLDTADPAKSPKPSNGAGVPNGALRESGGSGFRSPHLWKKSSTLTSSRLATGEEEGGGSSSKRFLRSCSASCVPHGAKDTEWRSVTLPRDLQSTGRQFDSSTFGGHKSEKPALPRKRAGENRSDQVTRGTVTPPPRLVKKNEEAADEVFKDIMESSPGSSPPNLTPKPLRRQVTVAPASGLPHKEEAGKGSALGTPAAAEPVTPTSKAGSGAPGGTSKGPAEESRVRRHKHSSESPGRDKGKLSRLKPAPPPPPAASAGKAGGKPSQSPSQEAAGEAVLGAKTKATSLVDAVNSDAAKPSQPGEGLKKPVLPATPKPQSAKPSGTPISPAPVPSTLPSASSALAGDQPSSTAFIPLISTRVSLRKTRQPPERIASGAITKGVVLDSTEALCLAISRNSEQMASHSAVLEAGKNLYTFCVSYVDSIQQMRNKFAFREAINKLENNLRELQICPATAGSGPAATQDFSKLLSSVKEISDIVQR

On to `COc1cc(CCc2cc(Nc3cc(Oc4ccc5[nH]c(C)cc5c4F)ncn3)n[nH]2)cc(OC)c1` [Example 22], for which the 50% effective concentration (EC50) on phospho-FGFR2 was > 100 nM. Moreover, the GI50 in the assay on RT112 was > 100 nM; in the assay with AN3_CA it was > 500 nM; in the assay with Kato III, 229 nM; in the assay on KG1a it was > 100 nM. In addition, the inhibition at 1 µM against FGFR1 kinase was found to be 98%; against Abl kinase, 19%; on Ret kinase, 25%; at KDR kinase, 96%; against Tie2, 18%; at c-Src kinase, 9%. Moreover, the inhibition at 1 µM against Alk kinase stood at 15%.

`CCN1CCN(c2ccc(Nc3ncnc(Oc4ccc5[nH]c(C)cc5c4F)c3C#N)cc2)CC1` [Compound 53]: the EC50 at phospho-FGFR2 came to 18 nM. In addition, the GI50 in the assay on RT112 was > 500 nM; with MDA-MB134, 5 nM; in the assay with AN3_CA, > 500 nM; in the assay on Kato III, 34 nM; in the assay with KG1a, 10 nM. Besides, the inhibition at 1 µM against FGFR1 kinase was 100%; against Abl kinase, 11%; against Ret kinase, -25%; against KDR kinase, 98%; against Tie2 it was 5%; at c-Src kinase, 10%. Moreover, the inhibition at 1 µM at Alk kinase is 49%.

In the case of `Cc1cc2c(F)c(Oc3ncnc(Nc4cc(C5CC5)n[nH]4)c3F)ccc2[nH]1` [Compound 32, N-(3-cyclopropyl-1H-pyrazol-5-yl)-5-fluoro-6-((4-fluoro-2-methyl-1H-indol-5-yl)oxy) pyrimidin-4-amine], at phospho-FGFR2, the EC50 was > 500 nM. Besides, the GI50 was > 500 nM with RT112; 138 nM in the assay with MDA-MB134; > 500 nM with AN3_CA; > 500 nM in the assay on Kato III; > 500 nM in the assay with KG1a. For the same molecule, the inhibition at 1 µM on FGFR1 kinase is 40%; at Abl kinase it was 0%; on Ret kinase, -33%; on KDR kinase it was 54%; against Tie2 it was -9%; on c-Src kinase it was -7%. Further, the inhibition at 1 µM against Alk kinase is -21%.

On to `Cc1cc2c(F)c(Oc3ncnc(Nc4ccc(N5CCN(C)CC5)cn4)c3Cl)ccc2[nH]1` [Compound 34, 5-chloro-6-((4-fluoro-2-methyl-1H-indol-5-yl)oxy)-N-(5-(4-methylpiperazin-1-yl)pyridin-2-yl)pyrimidin-4-amine], for which the EC50 at phospho-FGFR2 was > 100 nM. Moreover, the GI50 with RT112 was > 100 nM; in the assay with AN3_CA, > 500 nM; in the assay on Kato III it was 229 nM; with KG1a, > 100 nM. Also, the inhibition at 1 µM amounted to 98% at FGFR1 kinase; 19% against Abl kinase; 25% against Ret kinase; 96% at KDR kinase; 18% at Tie2; 9% at c-Src kinase. Further, at Alk kinase, the inhibition at 1 µM stood at 15%.

Regarding `Cc1cc2c(F)c(Oc3cc(Nc4cc(-c5ccccn5)[nH]n4)ncn3)ccc2[nH]1` [Example 6], the EC50 on phospho-FGFR2 is > 100 nM. For the same molecule, the GI50 is > 100 nM in the assay on RT112, 573 nM in the assay on AN3_CA, > 500 nM in the assay with Kato III and > 100 nM in the assay on KG1a. The inhibition at 1 µM was determined as 95% against FGFR1 kinase; 62% against Abl kinase; 78% at Ret kinase; 97% on KDR kinase; 59% at Tie2; 47% at c-Src kinase. For the same molecule, on Alk kinase, the inhibition at 1 µM came out at 6%.

For the molecule `CCN1CCN(c2ccc(Nc3cc(Oc4cc(F)c5[nH]c(C)cc5c4F)ncn3)cc2)CC1` [Compound 49], the EC50 on phospho-FGFR2 came to 75 nM. Further, the GI50 in the assay on RT112 is > 500 nM; in the assay with MDA-MB134, 56 nM; with AN3_CA it was > 500 nM; with Kato III, 207 nM; with KG1a, 60 nM. Besides, the inhibition at 1 µM was 99% against FGFR1 kinase; 68% on Abl kinase; 53% against Ret kinase; 96% on KDR kinase; 69% on Tie2; 74% at c-Src kinase. Besides, the inhibition at 1 µM against Alk kinase was 69%.

As for `Cc1cc2c(F)c(Oc3cc(Nc4ccc(N5CCNCC5)cc4)ncn3)cc(F)c2[nH]1` [Compound 51], on phospho-FGFR2, the EC50 worked out at 38 nM. The GI50 is > 100 nM with RT112, 406 nM in the assay on AN3_CA, 169 nM in the assay on Kato III and > 100 nM in the assay on KG1a. The inhibition at 1 µM on FGFR1 kinase is 101%; against Abl kinase, 73%; at Ret kinase it was 74%; against KDR kinase, 97%; at Tie2, 82%; on c-Src kinase, 70%. In addition, the inhibition at 1 µM against Alk kinase came out at 54%.

(Values after US10766879B2, “Pyrimidine derivatives as kinase inhibitors and their therapeutical applications” (NantBioScience, Inc., priority 2015, dated 2020).)
